According to patent US12239621B2, “Prevention of kidney injury induced by hemolytic reaction” (Niigata University, priority 2021, dated 2025):

Columns and labels:
[1] = target: binding between megalin and hemoglobin (Rattus norvegicus, UniProt P98158); conditions: QCM, 1 mg cilastatin injected into 200 μL buffer in advance, rat hemoglobin (FIG. 2-1)
From the text: (§1) Binding specificity between megalin and each ligand (hemoglobin, α1M, Hx), and the possible binding inhibition by cilastatin were verified using the quartz crystal microbalance (QCM) method by reference to the method described in PTL 2.
(§2) For the ligands to be verified, hemoglobin (LifeSpan Biosciences Inc., Rat Hemoglobin Native Protein, LS-G11201) and Hx (Sino Biological Inc., Rat Hemopexin/HPX protein (His Tag 81025-R08H)) were used. […]
(§3) After each of the ligand- or BSA-immobilized quartz crystal sensor was mounted in the measurement instrument AFFINIX® Q8 (Initium Inc.) and the frequency was confirmed to be stable, 8 μL of a 0.1 mg/mL solution of megalin purified from Sprague-Dawley (SD) rat kidneys according to the method of Orlando et al. was injected and frequency was measured with time.
(§4) More specifically, the megalin solution was reacted to each of the ligand-immobilized quartz crystal sensors placed in a chamber with 200 μL of buffer, and frequency was measured.
(§5) Additionally, 1 mg of cilastatin was injected into buffer in advance, each of the ligand-immobilized quartz crystal sensors was mounted in the measurement instrument, and after the frequency was confirmed to be stable, the megalin solution was injected and frequency was measured with time, whereby the antagonistic activity of cilastatin against the binding of each ligand to megalin was analyzed. […]

[2] = target: binding between megalin and Hx (Rattus norvegicus, UniProt P98158); conditions: QCM, 1 mg cilastatin injected into 200 μL buffer in advance, rat Hx (FIG. 2-1)
From the text: as §1, §2, §3, §4, §5

[3] = test system: hemolysis model mice; conditions: cilastatin 400 mg/kg i.p. at 0, 3 and 6 h after phenylhydrazine, kidneys at 24 h, immunostaining (FIG. 7)
Description: (§6) In line with Test Example 1, 1 mg/10 g of phenylhydrazine was given to C57BL/6 (male, aged 10-12 weeks), thereby constructing hemolysis model mice.
(§7) To the hemolysis models, a) 400 mg/kg (diluted in 100 μL, of normal saline) of cilastatin (Sigma-Aldrich Inc.), or b) 100 μL, of normal saline was intraperitoneally administered at the time of phenylhydrazine dosing, 3 hours after the dosing, and 6 hours after the dosing.
In the present test example, thinly sliced fixed samples obtained from the remaining right kidney of the same animal were immunostained (500-fold diluted) using an anti-α1M antibody (Gene Tex: GTX101068).

[4] = test system: hemolysis model mice; conditions: cilastatin 400 mg/kg i.p. at 0, 3 and 6 h after phenylhydrazine, vs normal saline control group (FIG. 1)
Description: Phenylhydrazine (97% phenylhydrazine, Sigma-Aldrich Inc.) was dissolved in PBS in a concentration of 5 mg/ml to prepare a PBS solution, and the solution was intraperitoneally given to C57BL/6 mice (male, aged 10-12 weeks) so that the dose of phenylhydrazine was 1 mg/10 g, thereby constructing homolysis models.
To the hemolysis models, a) 400 mg/kg (diluted in 100 μL of normal saline) of cilastatin (Sigma-Aldrich Inc.), or b) 100 μL of normal saline was intraperitoneally administered at the time of phenylhydrazine dosing, 3 hours after the dosing, and 6 hours after the dosing. For each a) and b), 6 mice were used.
Then, for each individual in a) cilastatin-treated group and b) normal saline-treated group (control group), urine was pooled using a metabolic cage for 24 hours after phenylhydrazine dosing, and the obtained urine samples were collected.
The urine and serum were stored at −80° C. until analysis and measured for urinary KIM-1 and blood urea nitrogen. The measurements were conducted by Oriental Yeast Co., Ltd.

[5] = target: binding between α1M and megalin (Rattus norvegicus, UniProt P98158); conditions: QCM, 1 mg/200 μL cilastatin injected into buffer in advance, rat α1M (FIG. 2-2)
From the text: as §1

[6] = test system: hemolysis model mice; conditions: cilastatin 400 mg/kg i.p. at 0, 3 and 6 h after phenylhydrazine, kidneys at 24 h, immunostaining (FIG. 5)
Description: Twenty-four hours after phenylhydrazine dosing, a portion containing a renal pedicle was sliced to 3 mm thickness from the right kidney and fixed with 4% paraformaldehyde phosphate buffer.
as §6, §7

[7] = test system: mice (C57BL/6); conditions: cilastatin sodium 400 mg/kg i.p.
Description: Cilastatin was administered to mice and changes in concentrations of each ligand in urine were observed.
Five mice (male, aged 12 weeks C57BL/6) were intraperitoneally administered with 400 mg/kg (diluted in 100 μL, of normal saline, cilastatin-treated group) of cilastatin sodium (Sigma-Aldrich Japan K.K., C5743), and then put in a metabolic cage for 3 hours to collect urine, and the urines of 5 mice were combined. Additionally, 100 μL, of normal saline was administered to another group of 5 mice (control group), and the same experiment as above was conducted.
Proteins were isolated from the obtained urine samples by electrophoresis (SDS-polyacrylamide gel), reductively alkylated (using dithiothreitol and iodoacetamide), digested with trypsin, and the obtained peptides were extracted to obtain a solid.
To the obtained solid, 15 μL, of 0.3% formic acid (FA) was added, shaken for 5 minutes, sonicated for 1 minute, and shaken again for 5 minutes. The resultant mixture was spun down, applied to a membrane filter having a pore diameter of 0.45 μm (ULtra free-MC, HV, 0.45 μm, Millipore), centrifuged at 10,000 rpm for 5 minutes, and the sample passed through the filter was subjected to LCMS analysis.
The analysis method described in Ohara et al., 2018, PLoS One, vol. 13, 1, e0204160 was referred to. The analysis method is shown below.
AnaLyst® TF1.6 (AB SCIEX) was used as an LCMS/MS data acquisition and analysis software, and the obtained raw data were converted to a peak list file (mgf file format), whereby MS/MS Ion Search (MIS search) was conducted using Matrix Science Mascot daemon, Mascot server 2.2.1. The sequence data base used was Uniprot, Swiss-Prot. Significance threshold was set to 0.05 (false discovery rate of less than 5%), and the proteins having 2 or more peptides exceeding the identification standard were listed as identified proteins.
Raw data were acquired 2 times per sample at LCMS to cover the issue of analysis reproducibility at LCMS, and the peak list files obtained from the 2 runs were combined and analyzed using Mascot (Ohara et al., 2018, PLoS One, vol. 13, 1, e0204160).
To the proteins identified in common in 2 groups when compared, the spectral count method was used, which is a label-free comparative, semiquantitative analysis method utilizing a principle that a large number of peptide fragments will be identified in those expressed at high levels, resulting in the increase in the number of MS/MS. In other words, the proteins identified in both of the cilastatin-treated group and control group were calculated for an SpC/L ratio (spectral abundance factor: SAF) of the cilastatin-treated group/control group, and the proteins having an SpC/L ratio of 2.0 or more were listed as the proteins abundant in urine of the cilastatin-treated group.

[8] = mice, 3 h urine pooled from 5 mice, LCMS

Chain of binding between α1M and megalin (P98158 26-4660): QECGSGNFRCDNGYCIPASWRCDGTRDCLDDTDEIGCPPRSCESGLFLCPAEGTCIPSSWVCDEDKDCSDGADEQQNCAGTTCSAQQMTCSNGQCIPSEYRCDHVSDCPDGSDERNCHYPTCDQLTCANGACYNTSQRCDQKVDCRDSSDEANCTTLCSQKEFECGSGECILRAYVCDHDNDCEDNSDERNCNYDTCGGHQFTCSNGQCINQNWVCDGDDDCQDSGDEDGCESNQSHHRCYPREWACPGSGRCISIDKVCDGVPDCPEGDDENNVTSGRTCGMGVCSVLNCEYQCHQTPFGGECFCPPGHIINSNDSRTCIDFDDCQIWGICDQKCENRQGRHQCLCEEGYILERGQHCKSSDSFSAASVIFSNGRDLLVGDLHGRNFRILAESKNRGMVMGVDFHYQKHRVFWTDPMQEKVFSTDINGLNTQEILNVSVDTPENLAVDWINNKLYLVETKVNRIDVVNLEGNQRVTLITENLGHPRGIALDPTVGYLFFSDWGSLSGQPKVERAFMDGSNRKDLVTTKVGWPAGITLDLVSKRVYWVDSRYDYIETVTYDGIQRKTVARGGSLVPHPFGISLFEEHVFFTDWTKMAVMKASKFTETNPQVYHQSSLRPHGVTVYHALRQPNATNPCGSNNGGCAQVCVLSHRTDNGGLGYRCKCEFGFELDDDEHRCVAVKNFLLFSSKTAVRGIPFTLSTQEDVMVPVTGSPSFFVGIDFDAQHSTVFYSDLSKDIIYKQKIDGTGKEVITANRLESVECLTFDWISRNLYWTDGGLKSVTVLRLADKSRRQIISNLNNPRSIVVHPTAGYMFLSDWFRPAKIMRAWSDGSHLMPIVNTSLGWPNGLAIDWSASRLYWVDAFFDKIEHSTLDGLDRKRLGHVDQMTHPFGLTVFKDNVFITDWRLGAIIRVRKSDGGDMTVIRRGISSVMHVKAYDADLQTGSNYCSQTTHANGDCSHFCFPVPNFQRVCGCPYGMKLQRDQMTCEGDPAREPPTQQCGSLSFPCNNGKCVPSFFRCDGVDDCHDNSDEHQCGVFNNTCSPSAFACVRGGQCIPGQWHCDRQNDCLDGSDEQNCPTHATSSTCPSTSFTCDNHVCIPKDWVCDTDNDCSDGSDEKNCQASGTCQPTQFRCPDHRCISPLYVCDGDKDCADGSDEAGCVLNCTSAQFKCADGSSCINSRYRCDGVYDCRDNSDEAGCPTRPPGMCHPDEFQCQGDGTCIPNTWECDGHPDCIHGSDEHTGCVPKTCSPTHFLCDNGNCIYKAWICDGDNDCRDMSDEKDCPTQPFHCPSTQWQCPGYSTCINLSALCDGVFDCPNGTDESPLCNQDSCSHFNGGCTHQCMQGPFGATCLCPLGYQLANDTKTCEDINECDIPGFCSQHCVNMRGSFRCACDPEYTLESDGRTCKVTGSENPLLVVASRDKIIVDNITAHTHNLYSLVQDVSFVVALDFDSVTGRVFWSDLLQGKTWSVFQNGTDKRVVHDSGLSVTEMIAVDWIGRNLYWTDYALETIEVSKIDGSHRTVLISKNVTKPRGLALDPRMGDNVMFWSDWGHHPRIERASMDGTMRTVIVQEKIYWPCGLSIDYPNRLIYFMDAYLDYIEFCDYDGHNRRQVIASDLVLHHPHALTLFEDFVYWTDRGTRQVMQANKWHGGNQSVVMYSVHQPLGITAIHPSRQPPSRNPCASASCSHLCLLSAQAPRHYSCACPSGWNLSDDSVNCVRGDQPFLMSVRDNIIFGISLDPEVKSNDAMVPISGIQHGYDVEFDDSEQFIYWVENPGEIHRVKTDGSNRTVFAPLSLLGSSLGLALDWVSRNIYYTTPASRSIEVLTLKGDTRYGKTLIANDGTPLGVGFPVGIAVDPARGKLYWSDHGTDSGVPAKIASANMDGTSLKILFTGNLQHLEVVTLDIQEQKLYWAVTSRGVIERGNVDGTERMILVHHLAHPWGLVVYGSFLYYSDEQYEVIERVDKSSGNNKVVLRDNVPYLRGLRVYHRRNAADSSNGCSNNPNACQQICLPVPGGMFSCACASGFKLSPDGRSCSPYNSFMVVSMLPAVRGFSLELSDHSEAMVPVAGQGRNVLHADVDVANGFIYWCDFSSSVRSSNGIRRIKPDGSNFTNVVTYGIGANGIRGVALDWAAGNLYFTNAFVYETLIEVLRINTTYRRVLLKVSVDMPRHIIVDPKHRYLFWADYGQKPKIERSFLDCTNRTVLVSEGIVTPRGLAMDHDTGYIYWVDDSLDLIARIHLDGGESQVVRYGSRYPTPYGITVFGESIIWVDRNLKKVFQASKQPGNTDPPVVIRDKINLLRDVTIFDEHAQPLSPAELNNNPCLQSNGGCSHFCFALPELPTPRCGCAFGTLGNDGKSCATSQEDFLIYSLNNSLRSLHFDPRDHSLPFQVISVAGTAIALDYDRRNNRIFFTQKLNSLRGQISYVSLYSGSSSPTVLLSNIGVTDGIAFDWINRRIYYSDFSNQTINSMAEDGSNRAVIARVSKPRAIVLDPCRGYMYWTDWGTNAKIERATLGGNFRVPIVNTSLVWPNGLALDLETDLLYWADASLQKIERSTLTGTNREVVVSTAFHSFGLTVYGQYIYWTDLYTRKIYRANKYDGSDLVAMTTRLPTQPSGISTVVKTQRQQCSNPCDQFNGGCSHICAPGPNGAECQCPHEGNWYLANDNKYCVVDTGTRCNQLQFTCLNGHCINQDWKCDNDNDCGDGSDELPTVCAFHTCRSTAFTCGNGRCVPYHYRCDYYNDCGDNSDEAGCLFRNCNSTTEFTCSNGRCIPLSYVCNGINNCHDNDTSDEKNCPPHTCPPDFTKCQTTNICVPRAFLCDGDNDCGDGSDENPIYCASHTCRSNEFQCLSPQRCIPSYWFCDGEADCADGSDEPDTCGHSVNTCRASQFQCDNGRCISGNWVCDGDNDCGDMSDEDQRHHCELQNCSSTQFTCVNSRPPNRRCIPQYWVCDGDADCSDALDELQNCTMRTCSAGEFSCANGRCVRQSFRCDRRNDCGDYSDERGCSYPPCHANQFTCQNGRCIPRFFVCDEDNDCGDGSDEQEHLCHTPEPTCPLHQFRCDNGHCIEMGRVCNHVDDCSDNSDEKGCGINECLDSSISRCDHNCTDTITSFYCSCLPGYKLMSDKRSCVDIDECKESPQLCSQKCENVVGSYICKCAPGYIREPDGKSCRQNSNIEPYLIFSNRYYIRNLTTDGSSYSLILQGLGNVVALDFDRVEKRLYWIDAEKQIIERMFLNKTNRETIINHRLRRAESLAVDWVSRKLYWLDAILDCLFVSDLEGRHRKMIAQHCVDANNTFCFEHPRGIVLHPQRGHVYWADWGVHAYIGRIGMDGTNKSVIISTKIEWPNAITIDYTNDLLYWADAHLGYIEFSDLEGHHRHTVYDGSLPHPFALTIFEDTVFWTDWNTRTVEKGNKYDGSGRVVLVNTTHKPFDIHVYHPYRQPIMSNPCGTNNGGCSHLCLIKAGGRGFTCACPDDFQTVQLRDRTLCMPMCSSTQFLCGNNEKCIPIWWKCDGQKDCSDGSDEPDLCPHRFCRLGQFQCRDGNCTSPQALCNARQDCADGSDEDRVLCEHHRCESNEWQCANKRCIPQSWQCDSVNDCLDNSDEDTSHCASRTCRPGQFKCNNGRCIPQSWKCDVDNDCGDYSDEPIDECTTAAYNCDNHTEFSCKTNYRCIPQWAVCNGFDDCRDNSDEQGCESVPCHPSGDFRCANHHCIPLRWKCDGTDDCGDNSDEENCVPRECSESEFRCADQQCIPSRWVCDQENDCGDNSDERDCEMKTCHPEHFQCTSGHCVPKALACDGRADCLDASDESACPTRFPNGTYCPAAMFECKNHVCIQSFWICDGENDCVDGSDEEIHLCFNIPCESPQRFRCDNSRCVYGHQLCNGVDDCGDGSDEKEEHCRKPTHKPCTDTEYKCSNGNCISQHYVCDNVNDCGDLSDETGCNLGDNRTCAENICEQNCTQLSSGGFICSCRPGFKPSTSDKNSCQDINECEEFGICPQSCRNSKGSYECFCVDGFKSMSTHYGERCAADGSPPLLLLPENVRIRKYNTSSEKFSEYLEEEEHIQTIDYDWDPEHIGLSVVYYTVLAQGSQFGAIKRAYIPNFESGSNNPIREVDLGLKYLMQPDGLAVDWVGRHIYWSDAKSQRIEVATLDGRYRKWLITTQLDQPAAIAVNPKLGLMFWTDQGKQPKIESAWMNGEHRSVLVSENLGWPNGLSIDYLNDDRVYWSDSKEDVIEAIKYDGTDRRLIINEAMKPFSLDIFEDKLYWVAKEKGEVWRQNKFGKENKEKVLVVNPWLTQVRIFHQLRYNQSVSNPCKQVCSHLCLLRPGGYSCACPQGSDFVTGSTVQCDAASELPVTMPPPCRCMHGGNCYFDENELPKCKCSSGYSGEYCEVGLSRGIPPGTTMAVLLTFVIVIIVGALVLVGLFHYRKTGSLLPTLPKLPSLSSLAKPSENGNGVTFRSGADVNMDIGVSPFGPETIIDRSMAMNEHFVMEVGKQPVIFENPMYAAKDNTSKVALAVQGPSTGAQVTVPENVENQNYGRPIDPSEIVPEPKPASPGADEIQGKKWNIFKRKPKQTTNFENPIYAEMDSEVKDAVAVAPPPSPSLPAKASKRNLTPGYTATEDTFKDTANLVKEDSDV
Chain of binding between megalin and hemoglobin (P98158 26-4660): as above
Chain of binding between megalin and Hx (P98158 26-4660): as above

## CC1(C)C[C@@H]1C(=O)N/C(=C\CCCCSC[C@H](N)C(=O)O)C(=O)O [cilastatin, (Z)-7-[[(R)-2-Amino-2-carboxyethyl]thio]-2-[[[(S)-2,2-dimethylcyclopropyl]carbonyl]amino]-2-heptenoic acid]
[1]
  binding of megalin to hemoglobin-immobilized quartz crystal sensor (drop of quartz crystal signals): inhibited
[2]
  binding of megalin to Hx-immobilized quartz crystal sensor (drop of quartz crystal signals): inhibited
[3]
  amounts of α1M taken up into kidney tissues: reduced
[4]; 24 h pooled urine
  urinary KIM-1: lower in the cilastatin (CS)-treated group than the control group
[4]; serum at 24 h
  blood urea nitrogen: lower in the cilastatin (CS)-treated group than the control group
[5]
  binding of α1M to megalin-immobilized quartz crystal sensor (drop of quartz crystal signals): inhibited
[6]
  amounts of hemoglobin taken up into kidney tissues: reduced
[7]; concluded from higher urinary concentrations in the cilastatin-treated group
  uptake of α1M and Hx into kidney tissues: inhibits
[7]; [8]
  SpC/L ratio (cilastatin-treated group/control group), urinary Albumin: 1.10
  SpC/L ratio (cilastatin-treated group/control group), urinary Clusterin: 0.73
  SpC/L ratio (cilastatin-treated group/control group), urinary Hx: 2.33
  SpC/L ratio (cilastatin-treated group/control group), urinary Transcobalamin-2: 2.33
  SpC/L ratio (cilastatin-treated group/control group), urinary Transthyretin: 1.00
  SpC/L ratio (cilastatin-treated group/control group), urinary Vitamin D-binding protein: 0.80
  SpC/L ratio (cilastatin-treated group/control group), urinary α1M: 3.67
